Data reported in patent US20080262029A1, “Acid and Base Salt Forms of Gaboxadol” (H. Lundbeck A/S, priority 2005, published 2008).
Where a name gives a salt, the structure may show the parent alone.

Key:
[1] = Differential scanning calorimetry (DSC) of gaboxadol salt forms; assay type: physicochemical; details: for DSC exothermic decomposition onset / DSC exothermic transition onset: 25 to 300° C., 10° C./min, dry nitrogen
Procedure: (§1) The X-ray powder diffraction spectra was generated on a Philips Analytical X'Pert PRO X-ray Diffraction System with PW3040/60 console. A PW3373/00 ceramic Cu LEF X-ray tube K-Alpha radiation was used as the source. The X-ray powder diffraction spectrum was recorded at ambient temperature (CuKα radiation, 3° to 40° (2θ), steps of 0.014°, 0.2 sec per step), giving the results herein. Solid-state carbon-13 NMR spectrum was obtained on a Bruker DSX 400WB NMR system using a Bruker 4 mm double resonance CPMAS probe. Carbon-13 NMR spectrum utilized proton/carbon-13 cross-polarization magic-angle spinning with variable-amplitude cross polarization. The sample was spun at 15.0 kHz, and a total of 2048 scans were collected with a recycle delay of 20 seconds. A line broadening of 40 Hz was applied to the spectrum before FT was performed. Chemical shifts are reported on the TMS scale using the carbonyl carbon of glycine (176.03 p.p.m.) as a secondary reference. DSC traces were recorded between 25 and 300° C. (10° C./min), under a flow of dry nitrogen. TGA was carried out between 25 and 300° C. (10° C./min), under a flow of dry nitrogen.

[2] = Thermogravimetric analysis (TGA) of gaboxadol salt forms; assay type: physicochemical; details: for TGA decomposition onset / TGA weight loss before decomposition (in words): 25 to 300° C., 10° C./min, dry nitrogen
Procedure: as §1

[3] = target: GABAA receptors comprising α4 and δ subunits (Homo sapiens, UniProt O14764+P48169); details: Brown et al, British J. Pharmacol., 136, 965-74 (2002); cited from earlier work
GABAA receptors comprising α4 and δ subunits, sequence (P48169 36-554): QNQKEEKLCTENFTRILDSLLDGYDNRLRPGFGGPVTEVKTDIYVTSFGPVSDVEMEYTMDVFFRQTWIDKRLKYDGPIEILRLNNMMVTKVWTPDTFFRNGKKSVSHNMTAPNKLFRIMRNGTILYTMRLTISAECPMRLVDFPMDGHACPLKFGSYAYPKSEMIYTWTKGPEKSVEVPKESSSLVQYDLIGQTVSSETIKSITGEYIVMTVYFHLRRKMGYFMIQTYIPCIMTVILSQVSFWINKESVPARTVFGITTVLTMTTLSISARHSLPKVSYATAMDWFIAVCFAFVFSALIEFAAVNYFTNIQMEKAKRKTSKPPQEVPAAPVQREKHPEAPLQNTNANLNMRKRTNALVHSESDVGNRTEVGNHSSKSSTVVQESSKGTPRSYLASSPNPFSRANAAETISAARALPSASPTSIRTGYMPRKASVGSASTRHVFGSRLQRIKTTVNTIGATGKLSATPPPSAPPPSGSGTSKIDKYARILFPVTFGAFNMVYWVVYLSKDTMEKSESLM
GABAA receptors comprising α4 and δ subunits, sequence (O14764 25-452): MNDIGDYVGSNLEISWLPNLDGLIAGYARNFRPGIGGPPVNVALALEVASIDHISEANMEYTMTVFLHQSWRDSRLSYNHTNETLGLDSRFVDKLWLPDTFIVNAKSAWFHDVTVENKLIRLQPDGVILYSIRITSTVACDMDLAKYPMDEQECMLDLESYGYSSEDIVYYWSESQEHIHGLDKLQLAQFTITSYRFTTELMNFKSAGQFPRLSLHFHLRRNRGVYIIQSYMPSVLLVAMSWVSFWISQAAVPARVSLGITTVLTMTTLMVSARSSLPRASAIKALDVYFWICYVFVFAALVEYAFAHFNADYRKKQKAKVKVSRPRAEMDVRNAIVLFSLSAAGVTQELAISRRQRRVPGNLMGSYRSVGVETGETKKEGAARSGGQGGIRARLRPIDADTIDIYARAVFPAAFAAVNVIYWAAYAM
GABAA receptors comprising α4 and δ subunits, sequence (P28472 26-473 partner): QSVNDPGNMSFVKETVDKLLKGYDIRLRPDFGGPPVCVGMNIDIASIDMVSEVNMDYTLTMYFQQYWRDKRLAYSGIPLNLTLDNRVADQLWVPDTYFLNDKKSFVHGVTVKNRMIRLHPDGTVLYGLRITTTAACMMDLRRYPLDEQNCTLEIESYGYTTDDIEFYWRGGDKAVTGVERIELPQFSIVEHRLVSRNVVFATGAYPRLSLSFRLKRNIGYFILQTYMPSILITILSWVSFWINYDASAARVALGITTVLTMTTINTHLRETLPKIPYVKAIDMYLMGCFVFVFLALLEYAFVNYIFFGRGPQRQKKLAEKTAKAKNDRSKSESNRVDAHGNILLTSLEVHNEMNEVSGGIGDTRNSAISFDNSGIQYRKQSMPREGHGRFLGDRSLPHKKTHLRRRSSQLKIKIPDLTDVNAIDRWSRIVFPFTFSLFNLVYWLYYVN

Row | Compound | DSC observation of exothermic events (in words) ([1]; solid analysed by DSC) | DSC exothermic decomposition onset [1] | TGA decomposition onset [2] | other results
1 | Oc1noc2c1CCNC2 [Calcium Salt, gaboxadol calcium] | exhibited exothermic decomposition | – | – | –
2 | C[N+](C)(C)CCO.[O-]c1noc2c1CCNC2 [Choline Salt, gaboxadol choline] | exhibited exothermic transitions | – | – | –
3 | Oc1noc2c1CCNC2.c1ccc(CNCCNCc2ccccc2)cc1 [N,N-Dibenzyl-ethylenediamine Salt, gaboxadol N,N-dibenzyl(ethylene)diamine] | exhibited an exothermic transition | – | – | –
4 | Oc1noc2c1CCNC2 [Potassium Salt, gaboxadol potassium] | exhibited exothermic transitions | – | – | –
5 | Oc1noc2c1CCNC2 [Sodium Salt, gaboxadol sodium] | exhibited exothermic transitions | – | – | –
6 | O=C(O)CC(O)(CC(=O)O)C(=O)O.Oc1noc2c1CCNC2 [gaboxadol citrate] | – | 175 °C | about 190 °C | TGA weight loss ([2]; from 32° C. to 103° C.): 8.9 wt %
7 | Oc1noc2c1CCNC2 [gaboxadol, 4,5,6,7-tetrahydroisoxazolo[5,4-c]pyridin-3-ol] | – | – | – | Agonist potency (in words) [3]: particularly potent agonist
8 | gaboxadol L-lysine [L-Lysine Salt] | exhibited exothermic transitions | – | – | –
9 | gaboxadol acetate [Acetate Salt] | – | – | 205 °C | DSC exothermic transition onset [1]: 204 °C; TGA weight loss ([2]; from 40° C. to 115° C.): 5.0 wt %
10 | gaboxadol bis-sulfate [Sulfate Salt from ethanol and acetonitrile (Type III)] | – | 207 °C | about 220 °C | TGA weight loss, step 2 ([2]; from 118° C. to 154° C.): 0.8 wt %; TGA weight loss, step 1 ([2]; from about 50° C. to 118° C.): 1.4 wt %
11 | gaboxadol bis-sulfate [Sulfate Salt from trifluorotoluene (Type I)] | – | 220 °C | about 220 °C | TGA weight loss, step 2 ([2]; from 87° C. to 180° C.): 4.3 wt %; TGA weight loss, step 1 ([2]; from about 50° C. to 87° C.): 1.2 wt %
12 | gaboxadol citrate [Citrate Salt from isopropyl acetate] | – | – | about 190 °C | DSC exothermic transition onset [1]: 175 °C; TGA weight loss ([2]; from 31° C. to 109° C.): 18.5 wt %
13 | gaboxadol fumarate [Fumarate Salt] | – | 215 °C | about 190 °C | TGA weight loss before decomposition (in words) [2]: no weight loss
14 | gaboxadol magnesium [Magnesium Salt] | – | – | – | Temperature below which DSC indicated no exothermic events ([1]; solid analysed by DSC): approximately 345 °C
15 | gaboxadol phosphate [Phosphate Salt] | – | about 200 °C | 214 °C | TGA weight loss before decomposition (in words) [2]: no weight loss
16 | gaboxadol succinate [Succinate Salt] | – | 198 °C | 193 °C | TGA weight loss before decomposition (in words) [2]: no weight loss
17 | gaboxadol sulfate [Sulfate Salt (1 mol equiv.)] | – | about 190 °C | 196 °C | TGA weight loss ([2]; from 50° C. to 176° C.): 7.1 wt %
18 | gaboxadol tartrate [L-Tartrate Salt] | – | 199 °C | about 189 °C | TGA weight loss ([2]; from 31° C. to 177° C.): 0.6 wt %
